Like-named read-outs stand apart in the source and are kept apart here.
What was measured:
Type in all cases: in vivo
[1] = Acute toxicity by the i.p. route (DL-0, DL-50); details: mouse, in vivo, ip; souris mâle, voie i.p.
Procedure: (§1) On a résumé ci-après les résultats des essais qui ont été entrepris chez l'animal avec le CRL 40914, ce produit étant administré, sauf indications contraires, en solution dans l'eau (à pH 5) par voie intrapéritonéale sous un volume de 20 ml/kg chez la souris mâle et de 5 ml/kg chez le rat mâle.
(§2) Chez la souris mâle, la DL-0 (dose maximale non mortelle) par voie i.p. est supérieure à 128 mg/kg.
(§3) On a résumé ci-après les résultats des essais qui ont été entrepris chez l'animal avec le CRL 40915, les modalités opératoires étant celles données ci-dessus pour le CR L 40914.
(§4) Chez la souris mâle, la DL-0 (dose maximale non mortelle) par voie i.p. est supérieure à 256 mg/kg, et la DL-50 par voie i.p. est de l'ordre de 500 mg/kg environ.

souris mâle = experiment: Acute toxicity by the i.p. route (DL-0, DL-50); details: voie i.p.
Procedure: as §1, §2, §3, §4

rat = experiment: Global behaviour and reactivity, rat; details: rat
Procedure: as §1
(§5) Des lots de 3 animaux sont observés avant, puis 15 min, 30 min, 1 h, 2 h, 3 h et 24 h après l'administration de CRL 40914. On observe ce qui suit:
as §3

rats [2] = experiment: Interaction with amphetamine; details: rat
Procedure: L'amphétamine (2 mg/kg) est injectée par voie intrapéritonéale à des lots de 12 rats, une demi-heure après l'administration de CRL 40914.
as §3

souris [3] = experiment: Motility reduced by habituation to the enclosure
Procedure: Après 18 h de séjour dans les actimètres, les souris (6 par dose, 12 témoins) reçoivent le CRL 40914. Elles sont aussitôt replacées dans leurs enceintes respectives et, une demi-heure plus tard, on enregistre leur motilité pendant 30 min.
as §3

souris [4] = experiment: Four plates test, traction and electroshock; details: 32 mg/kg et 128 mg/kg
Description: Le test est pratiqué sur des lots de 10 souris, une demi-heure après l'administration de CRL 40914.
as §3

souris [5] = experiment: Interaction with reserpine; details: 128 mg/kg
Procedure: Quatre heures après l'injection intrapéritonéale de 2,5 mg/kg de réserpine, des lots de 6 souris reçoivent le CRL 40914.
as §3

souris [6] = experiment: Asphyxic anoxia (gallamine triethiodide); details: 8 mg/kg, 32 mg/kg et 128 mg/kg, triiodoéthylate de gallamine
Procedure: Des lots de 10 souris reçoivent le CRL 40914 une demi-heure avant l'administration intrapéritonéale de 32 mg/kg de triiodoéthylate de gallamine (agent curarisant de référence).
as §3

souris [7] = experiment: Interaction with apomorphine, mouse
Procedure: Des lots de 6 souris reçoivent le CRL 40914 une demi-heure avant l'injection sous-cutanée d'apomorphine, à la dose de 1 mg/kg ou 16 mg/kg.
as §3

souris [8] = experiment: Action on spontaneous motility (actimeter); details: 32 mg/kg et 128 mg/kg
Procedure: Une demi-heure après avoir reçu le CRL 40914, des souris sont placées en actimètre où leur motilité est enregistrée pendant 30 min.
as §3

rats [9] = experiment: Interaction with apomorphine, rat; details: rat
Procedure: Le CRL 40914 est administré aux rats une demi-heure avant l'injection sous-cutanée de 0,5 mg/kg d'apomorphine.
as §3

souris [10] = experiment: Interaction with oxotremorine
Procedure: Le CRL 40914 est administré à des lots de 6 souris une demi-heure avant l'injection intrapéritonéale de 0,5 mg/kg d'oxotrémorine.
as §3

souris [11] = experiment: Global behaviour and reactivity, mouse
Procedure: as §1, §5, §3

souris [12] = experiment: Motility reduced by hypoxic aggression
Procedure: Une demi-heure après avoir reçu le CRL 40914, les souris (10 par dose, 20 témoins) sont soumises à une anoxie hypobare aiguë [dépression de 600 mm Hg (soit environ 8 x10^4 pascals) en 90 s puis détente de 45 s] puis elles sont placées en actimètre où leur motilité est enregistrée pendant 10min.
as §3

souris [13] = experiment: Interaction with yohimbine, temperature; details: yohimbine 0,5 mg/kg i.p. alone
Procedure: Des lots de 12 souris reçoivent une injection intrapéritonéale de 0,5 mg/kg de yohimbine, une demi-heure avant l'administration de CRL 40914.

souris [14] = experiment: Interaction with yohimbine, spontaneous motility; details: yohimbine 0,5 mg/kg i.p. alone
Procedure: Des lots de 12 souris reçoivent la yohimbine (0,5 mg/kg i.p.) et le CRL 40914 respectivement 60 et 30 min avant d'être placées en actimètre où leur motilité est enregistrée pendant une demi-heure.

## Cc1ccccc1C1CN(C)CCO1 (stereo not shown) [CRL 40915, Chlorhydratede 2-o-tolyl-4-méthyl-morpholine]
[1]
  LD50: ~500 mg/kg
Souris mâle
  DL-0 (dose maximale non mortelle): > 256 mg/kg
rat; 1 mg/kg i.p.
  signes: pas de signes particuliers
rat; 4 mg/kg i.p.
  mydriase: mydriase modérée pendant 30 minutes
  sédation: sédation pendant 30 minutes
rat; 16 mg/kg i.p.
  mydriase: mydriase pendant 30 à 60 minutes
  piloérection: piloérection
  sédation: sédation pendant 1 à 2 heures
rat; 64 mg/kg i.p.
  mydriase: mydriase pendant 1 heure
  piloérection: piloérection pendant 1 heure
  sédation: sédation pendant 1 à 2 heures
rat; 64 mg/kg i.p., pendant 30 à 60 minutes
  hypothermie: -1,9 °C
Rats [2]
  stéréotypies amphétaminiques: ne sont pas modifiées
Souris [3]
  activité motrice chez la souris habituée à son enceinte: ne provoque pas de reprise de l'activité
Souris [4]
  déficit moteur (traction): ne provoque pas de déficit moteur majeur
  effets convulsivants de l'électrochoc: s'oppose aux effets convulsivants de l'électrochoc
  nombre de passages punis (test des quatre plaques): diminue le nombre de passages punis
Souris [5]
  hypothermie réserpinique: aggrevation de I-hypothermie réserpinique
  ptosis réserpinique: le ptosis déjà maximal n'est pas modifié
Souris [6]
  apparition des convulsions et de la mort (anoxie asphyxique): retarde l'apparition des convulsions et de la mort
Souris [7]; 32 mg/kg et 128 mg/kg
  action hypothermisante de l'apomorphine: s'oppose aux doses de 32 mg/kg et 128 mg/kg à l'action hypothermisante de l'apomorphine
Souris [7]; 128 mg/kg, faible dose (1 mg/kg) d'apomorphine
  indices de verticalisation et de stéréotypies (apomorphine): diminue les indices de verticalisation et de stéréotypies
Souris [7]; doses voisines de 32 mg/kg
  effet intrinsèque sur la température: effet hypothermisant intrinsèque
Souris [8]
  activité motrice spontanée: diminution importante de l'activité motrice spontanée
Rats [9]
  stéréotypies produites par l'apomorphine: ne modifie pas les stéréotypies produites par l'apomorphine
Souris [10]; 32 mg/kg et 128 mg/kg
  effet intrinsèque sur la température: effet hypothermisant intrinsèque
  hypothermie induite par l'oxotrémorine: s'oppose à l'hypothermie induite par l'oxotrémorine
Souris [10]; 128 mg/kg
  tremblements induits par l'oxotrémorine: semblent partiellement antagonisés
Souris [10]; oxotrémorine 0,5 mg/kg i.p.
  signes de stimulation cholinergique périphérique provoqués par l'oxotrémorine: laisse inchangés les signes de stimulation cholinergique périphérique
Souris [11]; 2 mg/kg i.p.
  symptômes: pas de symptômes nets
Souris [11]; 8 mg/kg i.p.
  sédation: sédation fugace pendant 15 à 30 minutes
Souris [11]; 8 mg/kg i.p., pendant 1 heure
  hypothermie: -1,5 °C
Souris [11]; 32 mg/kg i.p.
  sédation: sédation pendant 1 heure
Souris [11]; 32 mg/kg i.p., pendant 1 heure
  hypothermie: -2,8 °C
Souris [11]; 128 mg/kg i.p.
  convulsions: convulsions pendant 15 minutes
  hyporéactivité au toucher: hyporéactivité au toucher pendant 15 minutes
  salivation et lacrymation: salivation et lacrymation pendant 30 minutes
  sédation: sédation avec diminution de la réaction d'agressivité pendant 2 heures
Souris [11]; 128 mg/kg i.p., pendant 2 heures
  hypothermie: -2,9 °C
Souris [12]
  récupération motrice après agression hypoxique: n'entraîne pas d'amélioration de la récupération motrice
Souris [12]; 32 mg/kg et 128 mg/kg
  récupération motrice après agression hypoxique: aggravation

## COC(=O)[C@@H]1[C@H]2C[C@H]3c4[nH]c5ccccc5c4CCN3C[C@@H]2CC[C@@H]1O [yohimbine, reference compound]
Souris [13]
  température rectale: ne modifie pas la température rectale
Souris [14]
  activité motrice spontanée: ne modifie pas l'activité motrice spontanée

From EP0080940B1, “Derivatives of 2-phenyl-morpholine and medical compositions” (LABORATOIRE L. LAFON Société anonyme dite:, priority 1981, dated 1983)
